Assay in all cases: DTP human tumour cell line panel, 48 h
Test [1] concerns T47D.
In test [2] the test system is SN12C.
The subject of test [3] is HCT-15.
Test [4] has as its system SR.
For test [5], the system named is KM12.
In test [6] the test system is NCI-H522.
Test [7] deals with SF-268.
The subject of test [8] is LOX IMVI.
Test [9] has as its system A498.
For test [10], the system named is DU-145.
Test [11] deals with MCF7.
The subject of test [12] is SK-MEL-5.
The test system of test [13] is NCI-H226.
The test system of test [14] is HCT-116.
The subject of test [15] is HL-60.
Test [16] relates to SF-295.
The test system of test [17] is CCRF-CEM.
The subject of test [18] is SK-MEL-28.
Test [19] deals with UO-31.
Test [20] concerns SK-OV-3.

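Results reflect a 48-hour exposure of cells in 96-well plates to compound at five concentrations. GI50: concentration for 50% inhibition of growth.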 Calls of active or inactive are those of the source. No stated cut-off is given here; in the data, active = GI50 up to about 1.1 µM and inactive = higher.

As a reminder, the GI50 is the concentration giving 50% growth inhibition.

Consider `OC(CCN1CCN(CCOC(c2ccc(F)cc2)c2ccc(F)cc2)CC1)c1ccc(Br)cc1` (stereo not given), for which the GI50 was 3.05 µM (inactive) in [1]; 2.68 µM (inactive) in test [2]; 2.74 µM in [3]; 2.34 µM (inactive) in test [4]; 2.44 µM (inactive) in test [5]; 5.74 µM (inactive) in [6]. Besides, the GI50 in [7] was 4.76 µM (inactive); in test [8] it was 2.04 µM (inactive); in test [9], 2.12 µM (inactive); in [10], 6.21 µM (inactive); in test [11] it was 3.37 µM (inactive); in test [12], 1.69 µM (inactive). Further, the GI50 in [13] was 5.7 µM (inactive); in test [14], 2.8 µM (inactive); in [15], 2.77 µM (inactive); in test [16], 4.62 µM (inactive); in test [17] it was 2.77 µM (inactive); in [18] it was 2.69 µM (inactive). Besides, the figures for the GI50 in test [19] and in test [20] were 2.22 µM (inactive) and 7.35 µM (inactive), respectively.
As to `Cc1cc(=O)oc2cc(OC(=O)N(CCCl)CCCl)ccc12`, the GI50 was 62.4 µM (inactive) in [1]; > 100 µM (inactive) in [2]; 77.6 µM in test [3]; 63.2 µM (inactive) in test [4]; > 100 µM (inactive) in test [5]; 79.1 µM (inactive) in [6]. Moreover, the GI50 in [7] was > 100 µM (inactive); in test [8], 59.8 µM (inactive); in [9] it was > 100 µM (inactive); in test [10], > 100 µM (inactive); in test [11], > 100 µM (inactive); in test [12], > 100 µM (inactive). The GI50 is > 100 µM (inactive) in test [13]; > 100 µM (inactive) in [14]; > 100 µM (inactive) in test [15]; > 100 µM (inactive) in test [16]; 90.4 µM (inactive) in test [17]; > 100 µM (inactive) in test [18]. Moreover, the GI50 in [19] and in test [20] was > 100 µM (inactive) each time.
As to `C[C@H](CCc1nc(C#N)c(N)o1)[C@H]1CC[C@H]2[C@@H]3[C@@H](O)CC4C[C@@H](O)CC[C@]4(C)[C@H]3C[C@@H](O)[C@]12C` (stereo not given in full), the GI50 in [1] is 27.5 µM (inactive); in test [2] it was 20.6 µM (inactive); in test [3] it was 48.3 µM; in [4], 17 µM (inactive); in test [5], 17.7 µM (inactive); in [6], 4.03 µM (inactive). Also, the GI50 is 20.2 µM (inactive) in test [7]; 12.1 µM (inactive) in test [8]; 39.1 µM (inactive) in test [9]; 28.1 µM (inactive) in test [10]; 33.1 µM (inactive) in test [11]; 18.9 µM (inactive) in test [12]. Also, the GI50 in test [13] is 21.2 µM (inactive); in test [14], 21.4 µM (inactive); in test [15], 3.62 µM (inactive); in test [16], 22.8 µM (inactive); in test [17], 0.498 µM (active); in [18], 25.6 µM (inactive). In addition, the results for the GI50 in test [19] and in test [20] were 20.6 µM (inactive) and 37.5 µM (inactive), respectively.
With `CCCC(c1cc(C(C)(C)C)c(O)cc1C)c1cc(C(C)(C)C)c(O)cc1C`, the GI50 in test [1] was 2.56 µM (inactive); in test [2] it was 1.94 µM (inactive); in test [3], 3.35 µM; in [4] it was 2.26 µM (inactive); in [5] it was 3.32 µM (inactive); in [6], 2.33 µM (inactive). The GI50 is 4.4 µM (inactive) in test [7]; 1.87 µM (inactive) in test [8]; 2.05 µM (inactive) in [9]; 4.05 µM (inactive) in test [10]; 2.06 µM (inactive) in test [11]; 1.77 µM (inactive) in [12]. Moreover, the GI50 in test [13] is 2.3 µM (inactive); in [14] it was 1.91 µM (inactive); in test [15], 2.27 µM (inactive); in test [16], 2.4 µM (inactive); in [17], 2.71 µM (inactive); in [18], 3.48 µM (inactive). For the same compound, the figures for the GI50 in test [19] and in [20] were 3.33 µM (inactive) and 3.65 µM (inactive), respectively.
For the compound `CC(Br)C(=O)Nc1ccc(C(=O)O)c(O)c1` (stereo not given), the GI50 in [1] is > 100 µM (inactive); in [2], 24.7 µM (inactive); in test [3], greater than 100 µM; in test [4], 32.9 µM (inactive); in test [5], 70.8 µM (inactive); in test [6], 20 µM (inactive). For the same compound, the GI50 in test [7] was 36.3 µM (inactive); in test [8] it was 34.5 µM (inactive); in test [9], > 100 µM (inactive); in test [10], > 100 µM (inactive); in [11] it was 83.4 µM (inactive); in [12], 62.5 µM (inactive). The GI50 is 93.5 µM (inactive) in [13]; 50.7 µM (inactive) in test [14]; 26.6 µM (inactive) in [15]; > 100 µM (inactive) in [16]; 15.8 µM (inactive) in test [17]; 47.4 µM (inactive) in [18]. For the same compound, the results for the GI50 in [19] and in test [20] were > 100 µM (inactive) and 38.5 µM (inactive), respectively.
With `CC(O)C1(CNc2cc(Cl)nc(N)n2)CC(CCc2ccccc2)C1` (stereo not given), the GI50 was 3.42 µM (inactive) in test [1]; 7.66 µM (inactive) in [2]; 11.6 µM in test [3]; 6.15 µM (inactive) in [4]; 14.5 µM (inactive) in test [5]; 8.41 µM (inactive) in test [6]. Also, the GI50 was 14.9 µM (inactive) in test [7]; 3.92 µM (inactive) in [8]; 13.7 µM (inactive) in [9]; 16.4 µM (inactive) in [10]; 0.108 µM (active) in [11]; 5.71 µM (inactive) in [12]. The GI50 is 14.7 µM (inactive) in test [13]; 8.28 µM (inactive) in test [14]; 14.1 µM (inactive) in test [15]; 14.4 µM (inactive) in test [16]; 17.6 µM (inactive) in test [17]; 14.3 µM (inactive) in [18]. Further, the GI50 in test [19] is 12.1 µM (inactive); in [20] it was 15.1 µM (inactive).
`OC(CC1CCCCN1)c1ccc2c(c1)oc1ccccc12` (stereo not given): the GI50 in test [1] was > 100 µM (inactive); in [2], > 100 µM (inactive); in test [3] it was 52.2 µM; in test [4], 67.3 µM (inactive); in test [5] it was > 100 µM (inactive); in test [6], 79.8 µM (inactive). The GI50 in test [7] is > 100 µM (inactive); in [8] it was 56 µM (inactive); in test [9], 23.4 µM (inactive); in test [10] it was > 100 µM (inactive); in [11], 83 µM (inactive); in test [12] it was 17.8 µM (inactive). Moreover, the GI50 in [13] was 74.5 µM (inactive); in test [14] it was 85.3 µM (inactive); in test [15] it was > 100 µM (inactive); in test [16] it was 99.1 µM (inactive); in test [17], 33.3 µM (inactive); in test [18] it was 34 µM (inactive). Besides, the figures for the GI50 in test [19] and in [20] were 37.2 µM (inactive) and > 100 µM (inactive), respectively.
With `CN(C)c1ccc(/C=C/C(=O)c2cc(C(C)(C)C)c(O)c(C(C)(C)C)c2)cc1`, the GI50 in test [1] was 4.06 µM (inactive); in test [2], 3.13 µM (inactive); in test [3], 1.15 µM; in [4], 0.546 µM (active); in test [5], 0.641 µM (active); in [6], 0.482 µM (active). The GI50 was 2.66 µM (inactive) in test [7]; 2.06 µM (inactive) in test [8]; 1.91 µM (inactive) in [9]; 2 µM (inactive) in test [10]; 0.469 µM (active) in test [11]; 0.774 µM (active) in [12]. In addition, the GI50 in test [13] was 1.85 µM (inactive); in [14], 1.05 µM (active); in test [15] it was 2.29 µM (inactive); in [16], 0.43 µM (active); in [17], 1.01 µM (active); in test [18], > 60 µM (inactive). For the same compound, the GI50 in test [19] was 1.61 µM (inactive); in test [20] it was 1.74 µM (inactive).
For `CC1(C)C2C=C(CCN3CCOCC3)CC1C2` (stereo not given), the GI50 in test [1] was > 100 µM (inactive); in test [2], > 100 µM (inactive); in test [3], greater than 100 µM; in test [4], > 100 µM (inactive); in test [5], > 100 µM (inactive); in test [6], > 100 µM (inactive). Also, the GI50 in test [7], in [8], in test [9], in test [10], in test [11] and in test [12] was > 100 µM (inactive) throughout. For the same compound, the GI50 in [13] is 64.9 µM (inactive); in test [14] it was > 100 µM (inactive); in test [15], > 100 µM (inactive); in [16] it was > 100 µM (inactive); in test [17], > 100 µM (inactive); in [18], > 100 µM (inactive). For the same compound, the GI50 in test [19] and in test [20] was > 100 µM (inactive) in each case.
In the case of `COC(=O)c1c(O)ccc2c1c1cc3ccccc3cc1n2Cc1cc(OC)cc(OC)c1`, the GI50 in [1] was 3.06 µM (inactive); in [2], 7.85 µM (inactive); in test [3] it was 1.46 µM; in test [4], 1.04 µM (active); in test [5], 0.805 µM (active); in test [6] it was 0.194 µM (active). Moreover, the GI50 in test [7] is 2.75 µM (inactive); in test [8] it was 9.31 µM (inactive); in test [9], 9.02 µM (inactive); in test [10], 2.53 µM (inactive); in [11], 1.73 µM (inactive); in test [12], 1.34 µM (inactive). Further, the GI50 in test [13] is 14.9 µM (inactive); in test [14], 1.13 µM (inactive); in test [15] it was 2.92 µM (inactive); in test [16], 1.11 µM (active); in test [17], 1.66 µM (inactive); in [18], 1.66 µM (inactive). Besides, the GI50 in test [19] is 3.17 µM (inactive); in test [20], 1.43 µM (inactive).

(Values after ChEMBL document CHEMBL1201862, “PubChem BioAssay data set” (2004).)
